# According to BindingDB's records for PubMed 11082457 (Centre De Recherches De Croissy, 2000):
# Columns and labels:
# [1] = target: T1, Alpha-1B adrenergic receptor (Rattus norvegicus, UniProt P15823)
# T1 sequence (P15823 whole entry): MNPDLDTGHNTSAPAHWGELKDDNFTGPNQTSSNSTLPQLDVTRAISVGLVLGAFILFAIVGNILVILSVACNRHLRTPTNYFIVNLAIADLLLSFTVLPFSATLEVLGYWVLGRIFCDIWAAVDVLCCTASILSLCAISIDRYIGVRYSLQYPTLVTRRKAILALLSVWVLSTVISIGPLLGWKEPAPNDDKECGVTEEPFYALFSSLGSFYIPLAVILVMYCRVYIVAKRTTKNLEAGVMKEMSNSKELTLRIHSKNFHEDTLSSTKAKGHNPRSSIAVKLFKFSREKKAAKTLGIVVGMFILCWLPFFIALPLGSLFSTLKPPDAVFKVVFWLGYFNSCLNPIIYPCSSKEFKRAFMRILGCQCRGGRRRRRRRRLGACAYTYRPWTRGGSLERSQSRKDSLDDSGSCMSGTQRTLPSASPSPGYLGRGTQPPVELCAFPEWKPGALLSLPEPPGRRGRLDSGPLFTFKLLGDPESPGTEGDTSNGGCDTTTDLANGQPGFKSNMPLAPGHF
# [2] = target: T2, Alpha-1B adrenergic receptor (Homo sapiens, UniProt P35368)
# T2 sequence (P35368 whole entry): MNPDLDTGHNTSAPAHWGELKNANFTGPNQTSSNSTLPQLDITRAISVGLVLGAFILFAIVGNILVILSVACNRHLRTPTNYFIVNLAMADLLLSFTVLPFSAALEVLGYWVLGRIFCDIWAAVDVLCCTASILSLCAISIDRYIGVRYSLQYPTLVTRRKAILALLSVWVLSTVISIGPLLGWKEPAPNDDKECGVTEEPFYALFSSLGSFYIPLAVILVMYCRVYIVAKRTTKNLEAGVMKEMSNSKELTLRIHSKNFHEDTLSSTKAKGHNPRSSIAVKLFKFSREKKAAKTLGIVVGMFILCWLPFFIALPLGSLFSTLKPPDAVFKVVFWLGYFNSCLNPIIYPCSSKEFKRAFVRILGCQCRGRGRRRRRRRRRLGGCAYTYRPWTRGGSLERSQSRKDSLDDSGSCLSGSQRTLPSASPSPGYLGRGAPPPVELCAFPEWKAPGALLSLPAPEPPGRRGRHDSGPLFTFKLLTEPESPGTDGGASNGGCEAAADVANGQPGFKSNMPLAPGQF
# [3] = target: T3, Amine oxidase [flavin-containing] B (Rattus norvegicus, UniProt P19643)
# T3 sequence (P19643 whole entry): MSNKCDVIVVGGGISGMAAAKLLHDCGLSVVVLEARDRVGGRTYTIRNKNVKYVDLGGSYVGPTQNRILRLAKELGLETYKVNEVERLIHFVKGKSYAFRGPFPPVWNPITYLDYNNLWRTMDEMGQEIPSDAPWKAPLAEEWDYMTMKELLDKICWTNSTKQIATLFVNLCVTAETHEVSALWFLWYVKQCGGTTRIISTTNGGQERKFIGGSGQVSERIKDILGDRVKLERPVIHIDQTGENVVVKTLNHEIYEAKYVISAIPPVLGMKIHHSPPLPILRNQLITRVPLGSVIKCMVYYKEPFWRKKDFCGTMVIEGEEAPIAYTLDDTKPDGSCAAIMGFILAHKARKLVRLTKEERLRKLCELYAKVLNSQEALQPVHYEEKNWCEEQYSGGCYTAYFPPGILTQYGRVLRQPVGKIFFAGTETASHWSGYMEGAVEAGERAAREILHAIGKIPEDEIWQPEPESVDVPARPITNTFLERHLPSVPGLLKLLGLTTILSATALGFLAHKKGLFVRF
# [4] = target: Sodium-dependent noradrenaline transporter (Homo sapiens, UniProt P23975)
# Sequence of Sodium-dependent noradrenaline transporter (P23975 whole entry): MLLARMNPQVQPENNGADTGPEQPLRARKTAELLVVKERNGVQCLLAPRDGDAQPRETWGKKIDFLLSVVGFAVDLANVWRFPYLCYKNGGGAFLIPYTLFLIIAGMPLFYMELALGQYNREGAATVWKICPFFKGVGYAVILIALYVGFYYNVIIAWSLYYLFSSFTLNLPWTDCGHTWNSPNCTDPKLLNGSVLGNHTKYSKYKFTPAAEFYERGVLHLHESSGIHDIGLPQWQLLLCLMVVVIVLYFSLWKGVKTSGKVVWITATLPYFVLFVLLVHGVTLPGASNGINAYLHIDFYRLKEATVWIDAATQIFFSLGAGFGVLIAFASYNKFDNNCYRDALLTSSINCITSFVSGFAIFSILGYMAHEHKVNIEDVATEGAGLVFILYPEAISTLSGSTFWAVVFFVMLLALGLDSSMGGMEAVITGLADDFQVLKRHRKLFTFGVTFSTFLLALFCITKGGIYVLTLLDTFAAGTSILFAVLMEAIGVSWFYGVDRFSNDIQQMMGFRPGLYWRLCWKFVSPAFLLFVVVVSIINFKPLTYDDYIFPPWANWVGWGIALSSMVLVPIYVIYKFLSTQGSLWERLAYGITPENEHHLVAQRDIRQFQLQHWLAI
# [5] = target: Nischarin (Rattus norvegicus, UniProt Q4G017)
# Sequence of Nischarin (Q4G017 whole entry): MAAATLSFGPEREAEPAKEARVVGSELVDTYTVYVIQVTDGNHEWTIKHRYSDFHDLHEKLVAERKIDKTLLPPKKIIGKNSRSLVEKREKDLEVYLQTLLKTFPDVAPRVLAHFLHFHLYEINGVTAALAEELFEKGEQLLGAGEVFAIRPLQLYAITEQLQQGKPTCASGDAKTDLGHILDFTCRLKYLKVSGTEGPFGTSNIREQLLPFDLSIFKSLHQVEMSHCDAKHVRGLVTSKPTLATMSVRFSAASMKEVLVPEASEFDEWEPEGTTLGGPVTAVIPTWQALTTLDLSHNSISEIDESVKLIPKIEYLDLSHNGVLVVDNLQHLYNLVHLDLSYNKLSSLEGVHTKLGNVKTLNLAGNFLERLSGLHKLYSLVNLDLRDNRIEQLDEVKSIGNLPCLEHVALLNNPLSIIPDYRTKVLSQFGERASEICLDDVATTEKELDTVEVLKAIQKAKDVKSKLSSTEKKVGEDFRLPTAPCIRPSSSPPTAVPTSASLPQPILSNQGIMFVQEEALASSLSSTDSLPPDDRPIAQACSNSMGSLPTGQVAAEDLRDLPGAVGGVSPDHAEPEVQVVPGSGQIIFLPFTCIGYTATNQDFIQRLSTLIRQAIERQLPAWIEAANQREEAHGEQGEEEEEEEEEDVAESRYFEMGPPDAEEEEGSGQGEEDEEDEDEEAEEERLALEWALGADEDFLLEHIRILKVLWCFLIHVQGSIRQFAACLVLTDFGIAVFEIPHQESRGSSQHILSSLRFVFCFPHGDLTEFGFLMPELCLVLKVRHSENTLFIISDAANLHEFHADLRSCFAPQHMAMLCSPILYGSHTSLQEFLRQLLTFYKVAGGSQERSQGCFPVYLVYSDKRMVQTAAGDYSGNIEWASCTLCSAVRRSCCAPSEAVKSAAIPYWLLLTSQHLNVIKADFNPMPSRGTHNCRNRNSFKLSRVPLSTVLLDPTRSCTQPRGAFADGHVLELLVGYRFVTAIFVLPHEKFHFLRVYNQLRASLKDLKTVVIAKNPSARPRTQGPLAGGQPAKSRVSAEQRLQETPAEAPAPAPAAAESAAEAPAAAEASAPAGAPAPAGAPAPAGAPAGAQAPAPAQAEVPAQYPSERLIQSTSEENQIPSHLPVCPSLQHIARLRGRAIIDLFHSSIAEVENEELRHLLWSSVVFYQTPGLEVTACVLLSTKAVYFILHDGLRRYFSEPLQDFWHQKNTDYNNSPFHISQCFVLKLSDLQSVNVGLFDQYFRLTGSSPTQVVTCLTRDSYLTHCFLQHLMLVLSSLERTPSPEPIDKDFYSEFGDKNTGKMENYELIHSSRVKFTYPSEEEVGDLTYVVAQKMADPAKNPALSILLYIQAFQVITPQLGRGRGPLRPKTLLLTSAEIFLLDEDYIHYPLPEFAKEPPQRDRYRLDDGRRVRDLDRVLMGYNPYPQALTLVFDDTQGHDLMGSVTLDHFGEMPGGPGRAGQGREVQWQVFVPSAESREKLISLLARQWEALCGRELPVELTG
# [6] = target: T4, Alpha-2C adrenergic receptor (Rattus norvegicus, UniProt P22086)
# T4 sequence (P22086 whole entry): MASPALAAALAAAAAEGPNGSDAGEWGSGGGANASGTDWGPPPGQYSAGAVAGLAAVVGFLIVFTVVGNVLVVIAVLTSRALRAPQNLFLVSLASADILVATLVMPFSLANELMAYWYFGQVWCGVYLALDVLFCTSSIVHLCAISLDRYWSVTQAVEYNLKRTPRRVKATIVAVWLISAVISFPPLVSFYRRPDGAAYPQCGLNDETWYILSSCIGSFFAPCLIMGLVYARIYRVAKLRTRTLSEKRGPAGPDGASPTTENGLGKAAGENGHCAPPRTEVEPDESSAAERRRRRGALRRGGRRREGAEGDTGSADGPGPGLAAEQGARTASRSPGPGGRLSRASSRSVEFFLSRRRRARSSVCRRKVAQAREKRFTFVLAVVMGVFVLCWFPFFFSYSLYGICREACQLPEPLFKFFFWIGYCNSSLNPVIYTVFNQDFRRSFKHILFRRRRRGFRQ
# [7] = target: T5, Amine oxidase [flavin-containing] A (Rattus norvegicus, UniProt P21396)
# T5 sequence (P21396 whole entry): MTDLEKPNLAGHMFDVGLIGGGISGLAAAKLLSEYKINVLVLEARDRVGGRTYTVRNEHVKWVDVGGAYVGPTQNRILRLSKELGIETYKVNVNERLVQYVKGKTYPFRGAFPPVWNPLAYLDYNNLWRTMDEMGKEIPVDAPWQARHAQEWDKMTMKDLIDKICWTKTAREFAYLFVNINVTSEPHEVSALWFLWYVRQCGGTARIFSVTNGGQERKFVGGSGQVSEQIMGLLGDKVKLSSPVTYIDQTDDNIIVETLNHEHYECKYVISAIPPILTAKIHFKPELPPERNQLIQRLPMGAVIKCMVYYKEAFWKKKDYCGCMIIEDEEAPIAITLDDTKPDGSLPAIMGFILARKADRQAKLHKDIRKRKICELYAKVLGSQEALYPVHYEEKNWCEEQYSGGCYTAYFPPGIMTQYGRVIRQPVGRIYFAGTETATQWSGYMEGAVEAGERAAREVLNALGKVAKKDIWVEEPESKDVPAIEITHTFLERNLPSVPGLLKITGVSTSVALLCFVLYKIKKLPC
Compound,Ki [1],Ki [2],Ki [3],Ki [4],Ki [5],Ki [6],Ki [7]
Cc1cccc([C@@H](C)c2cnc[nH]2)c1C,316 nM,316 nM,1000 nM,1000 nM,50.1 nM,1 nM,1000 nM
NC1=NC2(CCc3ccccc3C2)CO1 (centres undefined) [S18616],100 nM,20 nM,1000 nM,1000 nM,79.4 nM,0.159 nM,1000 nM
